# Results taken from ChEMBL document CHEMBL1201862, “PubChem BioAssay data set” (2004).
#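 The compound was tested at five concentrations on cells cultured in 96-well plates, with a 48-hour exposure period. Here, GI50 denotes the concentration required for 50% inhibition of growth.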 Calls of active or inactive are those of the source. Rule as the data show it: active = GI50 up to about 1.1 µM and inactive = higher.
# Key:
# Assay in all cases: NCI tumour cell line growth inhibition, 48 h
# MOLT-4 = test system: MOLT-4
# KM12 = test system: KM12
# SR = test system: SR
# EKVX = test system: EKVX
# HOP-92 = test system: HOP-92
# Malme-3M = test system: Malme-3M
# HOP-62 = test system: HOP-62
# HL-60 = test system: HL-60
# SK-MEL-28 = test system: SK-MEL-28
# SNB-75 = test system: SNB-75
# HCC 2998 = test system: HCC 2998
# M14 = test system: M14
# 786-0 = test system: 786-0
# IGROV-1 = test system: IGROV-1
# A498 = test system: A498
SMILES,GI50 (MOLT-4),GI50 (KM12),GI50 (SR),GI50 (EKVX),GI50 (HOP-92),GI50 (Malme-3M),GI50 (HOP-62),GI50 (HL-60),GI50 (SK-MEL-28),GI50 (SNB-75),GI50 (HCC 2998),GI50 (M14),GI50 (786-0),GI50 (IGROV-1),GI50 (A498)
CCOc1cc2cnc3c4cc(OC)c(OC)cc4ccc3c2cc1OC,49.8 µM (inactive),46.9 µM (inactive),27.3 µM (inactive),> 100 µM (inactive),> 100 µM (inactive),90.4 µM (inactive),> 100 µM (inactive),40.2 µM (inactive),> 100 µM (inactive),> 100 µM (inactive),> 100 µM (inactive),> 100 µM (inactive),> 100 µM (inactive),> 100 µM (inactive),
Cc1cccc(C)c1NC(=O)CCc1n[nH]c(=S)o1,> 100 µM (inactive),> 100 µM (inactive),,> 100 µM (inactive),> 100 µM (inactive),> 100 µM (inactive),> 100 µM (inactive),> 100 µM (inactive),> 100 µM (inactive),> 100 µM (inactive),> 100 µM (inactive),> 100 µM (inactive),71.9 µM (inactive),> 100 µM (inactive),> 100 µM (inactive)
CC(C)(C)C(=O)OC12/C(=N/O)CCCCCC1c1ccccc12 (centres undefined),14.5 µM (inactive),16.1 µM (inactive),,,,21 µM (inactive),21.7 µM (inactive),18.2 µM (inactive),18.5 µM (inactive),14.5 µM (inactive),> 100 µM (inactive),16.9 µM (inactive),17.2 µM (inactive),16.1 µM (inactive),16.9 µM (inactive)
COc1ccc(C(=O)C(C(=O)C(=O)Nc2ccc(Cl)c(Cl)c2)c2ccc(OC)cc2)cc1 (centres undefined),> 100 µM (inactive),> 100 µM (inactive),,> 100 µM (inactive),> 100 µM (inactive),> 100 µM (inactive),> 100 µM (inactive),78.5 µM (inactive),> 100 µM (inactive),57.5 µM (inactive),> 100 µM (inactive),> 100 µM (inactive),> 100 µM (inactive),> 100 µM (inactive),> 100 µM (inactive)
Cc1nc(N)sc1C(=O)/C=C/c1ccc(/C=C/C(=O)c2sc(NC(=O)CCCCCCCCC(=O)Nc3nc(C)c(C(=O)/C=C/c4ccc(/C=C/C(=O)c5sc(N)nc5C)cc4)s3)nc2C)cc1,> 100 µM (inactive),> 100 µM (inactive),> 100 µM (inactive),> 100 µM (inactive),< 0.01 µM (active),> 100 µM (inactive),> 100 µM (inactive),> 100 µM (inactive),52.8 µM (inactive),,> 100 µM (inactive),> 100 µM (inactive),> 100 µM (inactive),> 100 µM (inactive),
COc1ccc(N2C(=O)/C(=C/c3ccc(N(CCC#N)CCC#N)cc3C)N=C2/C=C\c2ccccc2)cc1,34.3 µM (inactive),28.1 µM (inactive),44 µM (inactive),,> 100 µM (inactive),41.6 µM (inactive),24.4 µM (inactive),92.7 µM (inactive),31.4 µM (inactive),> 100 µM (inactive),,27.1 µM (inactive),44.4 µM (inactive),68.4 µM (inactive),
O=C1CCN2C(=Nc3cccc4cccc2c34)N1,> 100 µM (inactive),,> 100 µM (inactive),0.551 µM (active),,,> 100 µM (inactive),> 100 µM (inactive),> 100 µM (inactive),76.9 µM (inactive),> 100 µM (inactive),> 100 µM (inactive),26.1 µM (inactive),> 100 µM (inactive),
CP(C)C.[Ag][I],> 100 µM (inactive),> 100 µM (inactive),> 100 µM (inactive),> 100 µM (inactive),40.2 µM (inactive),39.6 µM (inactive),> 100 µM (inactive),> 100 µM (inactive),61.9 µM (inactive),20 µM (inactive),> 100 µM (inactive),> 100 µM (inactive),> 100 µM (inactive),40.4 µM (inactive),
Cc1ccc(C2=Nc3ccccc3SC(c3cccc4c3OCO4)C2)cc1 (centres undefined),17.9 µM (inactive),15.7 µM (inactive),,21.1 µM (inactive),,24.1 µM (inactive),33.1 µM (inactive),17.4 µM (inactive),17.6 µM (inactive),7.94 µM (inactive),20.9 µM (inactive),18 µM (inactive),19 µM (inactive),16.7 µM (inactive),14.7 µM (inactive)
CCOC(=O)CC(NCc1ccc(/N=C/c2nc3ccc(C(F)(F)F)cc3nc2-c2ccccc2)cc1)C(=O)OCC (centres undefined),> 100 µM (inactive),> 100 µM (inactive),> 100 µM (inactive),> 69.5 µM (inactive),> 100 µM (inactive),> 100 µM (inactive),29 µM (inactive),> 100 µM (inactive),> 100 µM (inactive),12.1 µM (inactive),27 µM (inactive),> 80.7 µM (inactive),15.3 µM (inactive),> 63.1 µM (inactive),> 61.1 µM (inactive)
CCOC(=O)C(NO)C(Sc1ccccc1)c1ccc(OC)cc1 (centres undefined),42.1 µM (inactive),78.5 µM (inactive),> 100 µM (inactive),> 100 µM (inactive),> 100 µM (inactive),> 100 µM (inactive),88.3 µM (inactive),,> 100 µM (inactive),55.5 µM (inactive),> 100 µM (inactive),> 100 µM (inactive),> 100 µM (inactive),> 100 µM (inactive),
COc1cc(N)c2[nH]c3c(C)ccc(C)c3c2c1,> 100 µM (inactive),> 100 µM (inactive),> 100 µM (inactive),> 100 µM (inactive),,> 100 µM (inactive),> 100 µM (inactive),> 100 µM (inactive),> 100 µM (inactive),> 100 µM (inactive),> 100 µM (inactive),> 100 µM (inactive),> 100 µM (inactive),,
O=C(O)C1(c2ccccc2)CCCNCC1 (centres undefined),> 100 µM (inactive),> 100 µM (inactive),> 100 µM (inactive),> 100 µM (inactive),> 100 µM (inactive),> 100 µM (inactive),> 100 µM (inactive),,> 100 µM (inactive),> 100 µM (inactive),> 100 µM (inactive),> 100 µM (inactive),> 100 µM (inactive),> 100 µM (inactive),> 100 µM (inactive)
CN(C)C(=S)/N=c1\ssc(=S)n1-c1ccccc1,,5.38 µM (inactive),,23.4 µM (inactive),20.4 µM (inactive),16.9 µM (inactive),34.2 µM (inactive),18.1 µM (inactive),16.7 µM (inactive),17.4 µM (inactive),19.6 µM (inactive),15 µM (inactive),16.8 µM (inactive),17 µM (inactive),21.3 µM (inactive)
COC(=O)C1=C(C(=O)OC)C2(C)OC1C(=O)C21CC1 (centres undefined),19.5 µM (inactive),30.5 µM (inactive),19 µM (inactive),39.7 µM (inactive),,23.9 µM (inactive),> 100 µM (inactive),16.7 µM (inactive),,28.9 µM (inactive),25.5 µM (inactive),15.3 µM (inactive),38.7 µM (inactive),23.2 µM (inactive),
OCn1nc2c(C3OCCO3)cc3ccccc3n2c1=S,> 100 µM (inactive),> 100 µM (inactive),> 100 µM (inactive),> 100 µM (inactive),> 100 µM (inactive),> 100 µM (inactive),> 100 µM (inactive),> 100 µM (inactive),> 100 µM (inactive),> 100 µM (inactive),,> 100 µM (inactive),> 100 µM (inactive),> 100 µM (inactive),> 100 µM (inactive)
O=C(Cc1nc2ccccc2s1)C(=O)Nc1ccc(Cl)cc1Cl,> 100 µM (inactive),> 100 µM (inactive),> 100 µM (inactive),,65.8 µM (inactive),> 100 µM (inactive),39.9 µM (inactive),,> 100 µM (inactive),47.4 µM (inactive),> 100 µM (inactive),> 100 µM (inactive),> 100 µM (inactive),> 100 µM (inactive),
COc1cc([C@@H]2OCC3C(c4ccc5c(c4)OCO5)OCC32)cc(OC)c1OC (some centres undefined),45.5 µM (inactive),> 100 µM (inactive),91.6 µM (inactive),47.1 µM (inactive),8.97 µM (inactive),> 100 µM (inactive),> 100 µM (inactive),> 100 µM (inactive),> 100 µM (inactive),4.33 µM (inactive),> 100 µM (inactive),> 100 µM (inactive),> 100 µM (inactive),> 100 µM (inactive),> 100 µM (inactive)
CC(C)=CCC/C(C)=C/CC/C(C)=C/Cc1c(O)c2ccccc2oc1=O,> 100 µM (inactive),> 100 µM (inactive),> 100 µM (inactive),> 100 µM (inactive),> 100 µM (inactive),> 100 µM (inactive),> 100 µM (inactive),99.1 µM (inactive),> 100 µM (inactive),> 100 µM (inactive),> 100 µM (inactive),> 100 µM (inactive),> 100 µM (inactive),> 100 µM (inactive),
COc1ccc2[nH]cc(CCNC(C)=O)c2c1 [MELATONIN],> 100 µM (inactive),> 100 µM (inactive),,> 100 µM (inactive),> 100 µM (inactive),> 100 µM (inactive),> 100 µM (inactive),> 100 µM (inactive),> 100 µM (inactive),> 100 µM (inactive),,> 100 µM (inactive),88.5 µM (inactive),> 100 µM (inactive),> 100 µM (inactive)
